Experimental data from patent publication EP3154958B1, “PHOSPHATIDYLINOSITOL 3-KINASE INHIBITORS” (Gilead Sciences, Inc., priority 2014, dated 2015).

What was measured:
Format in all cases: biochemical
PI3Kβ = target: T1, PI3Kβ (Homo sapiens, UniProt P42338); assay: TR-FRET enzymatic activity assay, PI3Kβ; details: recombinant heterodimeric PI3Kβ 25-50 pM, 2× Km ATP, 30 minutes at 25°C
T1 construct: made in house
Description: (§1) The compounds of formula (I) were characterized for their enzymatic activity against the PI3K isoforms. The activities were measured using a time-resolved fluorescence resonance energy transfer (TR-FRET) assay.

PI3Kδ = target: T2, PI3Kδ (Homo sapiens, UniProt O00329); assay: TR-FRET enzymatic activity assay, PI3Kδ; details: recombinant heterodimeric PI3Kδ 25-50 pM, 2× Km ATP, 30 minutes at 25°C
T2 construct: made in house
Description: as §1

PI3Kγ = target: T3, PI3Kγ (Homo sapiens, UniProt P48736); assay: TR-FRET enzymatic activity assay, PI3Kγ; details: recombinant heterodimeric PI3Kγ 2 nM, 2× Km ATP, 30 minutes at 25°C
T3 construct: made in house
Description: as §1

T3 sequence (P48736 whole entry): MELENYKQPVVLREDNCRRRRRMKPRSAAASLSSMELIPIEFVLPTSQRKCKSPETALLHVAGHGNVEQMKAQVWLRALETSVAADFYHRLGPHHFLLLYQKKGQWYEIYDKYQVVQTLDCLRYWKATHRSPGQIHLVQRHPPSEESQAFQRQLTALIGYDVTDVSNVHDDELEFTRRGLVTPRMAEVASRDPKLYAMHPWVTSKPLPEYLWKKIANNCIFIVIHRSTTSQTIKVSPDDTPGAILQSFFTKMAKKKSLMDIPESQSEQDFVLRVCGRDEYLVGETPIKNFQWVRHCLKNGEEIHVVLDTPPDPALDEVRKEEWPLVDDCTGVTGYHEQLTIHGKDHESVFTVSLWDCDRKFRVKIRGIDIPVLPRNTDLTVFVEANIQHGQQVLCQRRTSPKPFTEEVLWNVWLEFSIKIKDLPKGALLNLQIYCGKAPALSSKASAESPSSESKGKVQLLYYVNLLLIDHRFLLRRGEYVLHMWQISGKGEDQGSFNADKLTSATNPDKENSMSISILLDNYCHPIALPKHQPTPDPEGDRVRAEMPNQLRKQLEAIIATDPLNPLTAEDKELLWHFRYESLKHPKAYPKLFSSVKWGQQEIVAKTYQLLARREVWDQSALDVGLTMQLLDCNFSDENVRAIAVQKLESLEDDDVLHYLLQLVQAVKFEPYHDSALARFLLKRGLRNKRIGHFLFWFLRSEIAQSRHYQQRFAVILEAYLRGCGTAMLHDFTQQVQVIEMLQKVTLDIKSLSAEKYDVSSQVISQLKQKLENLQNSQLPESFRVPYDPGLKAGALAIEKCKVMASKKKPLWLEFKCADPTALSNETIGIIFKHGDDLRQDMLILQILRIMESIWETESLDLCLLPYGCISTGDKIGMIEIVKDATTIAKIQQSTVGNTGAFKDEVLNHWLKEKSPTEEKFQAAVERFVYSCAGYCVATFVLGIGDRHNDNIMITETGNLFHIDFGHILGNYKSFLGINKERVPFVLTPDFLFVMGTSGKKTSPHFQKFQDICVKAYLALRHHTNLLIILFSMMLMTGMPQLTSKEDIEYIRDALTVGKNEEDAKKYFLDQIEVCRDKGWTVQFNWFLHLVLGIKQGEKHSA
T3 sequence (Q8WYR1 whole entry partner): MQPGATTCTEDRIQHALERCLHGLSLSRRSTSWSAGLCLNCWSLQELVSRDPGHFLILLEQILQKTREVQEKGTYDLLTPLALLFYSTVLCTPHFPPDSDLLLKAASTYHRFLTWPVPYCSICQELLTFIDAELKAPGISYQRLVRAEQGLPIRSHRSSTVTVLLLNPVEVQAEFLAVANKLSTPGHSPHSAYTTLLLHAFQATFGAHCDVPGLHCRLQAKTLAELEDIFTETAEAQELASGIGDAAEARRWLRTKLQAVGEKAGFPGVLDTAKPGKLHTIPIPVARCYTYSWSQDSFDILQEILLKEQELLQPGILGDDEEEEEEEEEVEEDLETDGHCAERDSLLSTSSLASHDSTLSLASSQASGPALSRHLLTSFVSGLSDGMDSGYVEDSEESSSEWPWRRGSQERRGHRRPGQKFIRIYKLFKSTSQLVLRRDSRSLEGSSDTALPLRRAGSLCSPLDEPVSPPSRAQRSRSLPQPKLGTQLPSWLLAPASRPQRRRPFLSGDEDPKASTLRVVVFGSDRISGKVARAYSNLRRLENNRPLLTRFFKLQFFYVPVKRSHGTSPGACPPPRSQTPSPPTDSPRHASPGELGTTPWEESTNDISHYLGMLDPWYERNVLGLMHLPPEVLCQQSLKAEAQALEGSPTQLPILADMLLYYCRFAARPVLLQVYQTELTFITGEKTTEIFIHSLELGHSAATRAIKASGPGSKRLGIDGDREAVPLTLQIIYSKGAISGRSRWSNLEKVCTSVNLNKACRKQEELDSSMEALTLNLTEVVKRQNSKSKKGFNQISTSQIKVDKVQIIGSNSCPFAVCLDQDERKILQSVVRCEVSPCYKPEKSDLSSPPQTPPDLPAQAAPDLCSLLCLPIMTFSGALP
T1 sequence (P42338 whole entry): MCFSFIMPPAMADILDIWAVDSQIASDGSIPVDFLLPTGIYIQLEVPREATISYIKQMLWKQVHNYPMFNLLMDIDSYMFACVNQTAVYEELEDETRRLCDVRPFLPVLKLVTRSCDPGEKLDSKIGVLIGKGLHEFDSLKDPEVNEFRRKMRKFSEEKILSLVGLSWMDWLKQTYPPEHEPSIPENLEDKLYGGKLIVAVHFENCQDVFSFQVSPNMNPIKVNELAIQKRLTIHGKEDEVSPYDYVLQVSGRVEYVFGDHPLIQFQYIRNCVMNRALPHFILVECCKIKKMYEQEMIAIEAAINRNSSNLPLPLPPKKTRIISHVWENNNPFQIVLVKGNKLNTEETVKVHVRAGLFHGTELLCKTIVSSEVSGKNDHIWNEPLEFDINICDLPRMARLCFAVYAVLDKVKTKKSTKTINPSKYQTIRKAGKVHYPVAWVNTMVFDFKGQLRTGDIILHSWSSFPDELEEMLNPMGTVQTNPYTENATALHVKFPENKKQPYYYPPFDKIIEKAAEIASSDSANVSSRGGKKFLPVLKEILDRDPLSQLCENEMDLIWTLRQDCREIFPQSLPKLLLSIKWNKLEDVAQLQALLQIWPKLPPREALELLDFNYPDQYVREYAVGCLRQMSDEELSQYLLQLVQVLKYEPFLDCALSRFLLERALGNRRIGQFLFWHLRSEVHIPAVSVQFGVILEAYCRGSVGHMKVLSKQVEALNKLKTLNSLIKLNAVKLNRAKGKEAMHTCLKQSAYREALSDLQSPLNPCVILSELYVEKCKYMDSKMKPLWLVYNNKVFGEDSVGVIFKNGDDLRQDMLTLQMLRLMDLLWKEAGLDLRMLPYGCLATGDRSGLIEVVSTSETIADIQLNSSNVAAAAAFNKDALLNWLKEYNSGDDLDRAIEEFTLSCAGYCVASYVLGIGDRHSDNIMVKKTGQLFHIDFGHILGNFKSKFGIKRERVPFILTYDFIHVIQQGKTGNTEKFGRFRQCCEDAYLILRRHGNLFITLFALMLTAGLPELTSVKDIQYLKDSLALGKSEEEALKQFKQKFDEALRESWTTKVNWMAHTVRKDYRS
T1 sequence (P27986 whole entry partner): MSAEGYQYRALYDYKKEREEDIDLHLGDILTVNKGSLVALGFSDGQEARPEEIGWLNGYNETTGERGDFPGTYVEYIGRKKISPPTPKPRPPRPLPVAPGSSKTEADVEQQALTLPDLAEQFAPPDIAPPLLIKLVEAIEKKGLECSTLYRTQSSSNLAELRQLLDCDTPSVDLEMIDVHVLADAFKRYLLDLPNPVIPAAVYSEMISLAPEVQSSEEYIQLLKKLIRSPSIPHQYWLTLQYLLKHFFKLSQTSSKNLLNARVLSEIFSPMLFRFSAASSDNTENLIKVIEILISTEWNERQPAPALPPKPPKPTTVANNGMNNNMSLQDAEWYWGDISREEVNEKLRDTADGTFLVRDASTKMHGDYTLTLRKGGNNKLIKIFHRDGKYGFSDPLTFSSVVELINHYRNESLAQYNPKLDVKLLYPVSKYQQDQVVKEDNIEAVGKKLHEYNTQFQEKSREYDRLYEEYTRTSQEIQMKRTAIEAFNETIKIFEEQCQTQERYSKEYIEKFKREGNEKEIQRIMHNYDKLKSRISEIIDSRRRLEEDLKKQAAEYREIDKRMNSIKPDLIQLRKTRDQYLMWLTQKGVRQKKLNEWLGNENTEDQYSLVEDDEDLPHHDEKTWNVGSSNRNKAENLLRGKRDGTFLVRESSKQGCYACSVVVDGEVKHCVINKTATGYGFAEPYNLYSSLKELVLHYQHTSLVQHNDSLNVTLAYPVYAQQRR
T2 sequence (O00329 whole entry): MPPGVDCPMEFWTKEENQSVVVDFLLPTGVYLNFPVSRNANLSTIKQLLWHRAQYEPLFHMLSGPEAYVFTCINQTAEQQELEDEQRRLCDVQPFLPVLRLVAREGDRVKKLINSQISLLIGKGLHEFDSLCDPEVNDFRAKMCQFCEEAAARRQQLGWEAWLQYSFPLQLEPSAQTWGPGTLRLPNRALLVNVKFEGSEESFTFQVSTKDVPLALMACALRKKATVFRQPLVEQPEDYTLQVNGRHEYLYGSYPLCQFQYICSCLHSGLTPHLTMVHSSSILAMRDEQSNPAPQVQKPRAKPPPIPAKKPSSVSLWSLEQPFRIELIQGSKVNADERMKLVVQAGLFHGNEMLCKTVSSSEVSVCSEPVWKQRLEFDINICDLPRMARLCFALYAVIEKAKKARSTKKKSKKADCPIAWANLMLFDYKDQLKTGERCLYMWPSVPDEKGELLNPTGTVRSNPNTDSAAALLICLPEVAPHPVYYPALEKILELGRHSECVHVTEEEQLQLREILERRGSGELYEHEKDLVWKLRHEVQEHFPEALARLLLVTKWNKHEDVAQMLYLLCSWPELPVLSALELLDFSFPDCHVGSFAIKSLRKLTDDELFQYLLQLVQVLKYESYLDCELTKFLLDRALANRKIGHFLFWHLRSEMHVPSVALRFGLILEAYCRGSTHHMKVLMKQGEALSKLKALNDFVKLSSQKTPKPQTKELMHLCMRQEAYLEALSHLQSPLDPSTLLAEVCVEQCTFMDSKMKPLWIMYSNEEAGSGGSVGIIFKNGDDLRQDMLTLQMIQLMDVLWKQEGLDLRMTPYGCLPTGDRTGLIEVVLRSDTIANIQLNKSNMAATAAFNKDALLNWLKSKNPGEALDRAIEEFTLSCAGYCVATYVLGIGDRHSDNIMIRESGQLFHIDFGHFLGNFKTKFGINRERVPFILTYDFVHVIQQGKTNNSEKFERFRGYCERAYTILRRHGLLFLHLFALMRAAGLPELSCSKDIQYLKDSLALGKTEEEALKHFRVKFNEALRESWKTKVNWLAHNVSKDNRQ
T2 sequence (P27986 whole entry partner): as the sequence (P27986 whole entry partner) above

| IC50 (PI3Kβ) [nM] | IC50 (PI3Kδ) [nM] | IC50 (PI3Kγ) [nM] | Compound |
| --- | --- | --- | --- |
| 13 | 15 | 470 | C[C@H](Nc1nc(N)nc(N)c1C#N)c1nc2c(F)ccc(Cl)c2c(=O)n1N1CCN(Cc2ccccc2)CC1 [Compound 116, (S)-2,4-diamino-6-((1-(3-(4-benzylpiperazin-1-yl)-5-chloro-8-fluoro-4-oxo-3,4-dihydroquinazolin-2-yl)ethyl)amino)pyrimidine-5-carbonitrile] |
| 83 | 10 | > 10000 | C[C@H](Nc1ncnc2ccoc12)c1nc2cccc(Cl)c2c(=O)n1N1CCNCC1 [Compound 34, (S)-5-chloro-2-(1-(furo[3,2-d]pyrimidin-4-ylamino)ethyl)-3-(piperazin-1-yl)quinazolin-4(3H)-one] |
| 4500 | 50 | > 10000 | CC[C@H](Nc1nc(N)nc(C)c1C#N)c1nc2cccc(Cl)c2c(=O)n1N1CCN(Cc2ccc(C(F)(F)F)cc2)CC1 [Compound 89, (S)-2-amino-4-((1-(5-chloro-4-oxo-3-(4-(4-(trifluoromethyl)benzyl)piperazin-1-yl)-3,4-dihydroquinazolin-2-yl)propyl)amino)-6-methylpyrimidine-5-carbonitrile] |
| 170 | 22 | 6400 | C[C@H](Nc1nc(N)nc(N)c1C#N)c1nc2cccc(Cl)c2c(=O)n1[C@H]1CCCNC1 [Compound 28, 2,4-diamino-6-(((S)-1-(5-chloro-4-oxo-3-((S)-piperidin-3-yl)-3,4-dihydroquinazolin-2-yl)ethyl)amino)pyrimidine-5-carbonitrile] |
| 30 | 21 | 1740 | CN1CCN(n2c([C@@H](Nc3nc(N)nc(N)c3C#N)C3CC3)nc3cccc(Cl)c3c2=O)CC1 [Compound 1, (S)-2,4-diamino-6-(((5-chloro-3-(4-methylpiperazin-1-yl)-4-oxo-3,4-dihydroquinazolin-2-yl)(cyclopropyl)methyl)amino)pyrimidine-5-carbonitrile] |
| 28 | 13 | > 10000 | N#Cc1c(N)nc(N)nc1N[C@H](c1nc2c(F)ccc(F)c2c(=O)n1N1CCNCC1)C1CC1 [Compound 127, (S)-2,4-diamino-6-((cyclopropyl(5,8-difluoro-4-oxo-3-(piperazin-1-yl)-3,4-dihydroquinazolin-2-yl)methyl)amino)pyrimidine-5-carbonitrile] |
| 9 | 2 | > 10000 | C[C@H](Nc1nc(N)nc(N)c1C#N)c1nc2cccc(Cl)c2c(=O)n1[C@@H]1CCCNCC1 [Compound 9, 2,4-diamino-6-(((S)-1-(3-((R)-azepan-4-yl)-5-chloro-4-oxo-3,4-dihydroquinazolin-2-yl)ethyl)amino)pyrimidine-5-carbonitrile] |
| 48 | 18 | 1300 | N#Cc1c(N)nc(N)nc1N[C@H](c1nc2cccc(Cl)c2c(=O)n1N1CCN(Cc2ccccc2)CC1)C1CC1 [Compound 93, (S)-2,4-diamino-6-(((3-(4-benzylpiperazin-1-yl)-5-chloro-4-oxo-3,4-dihydroquinazolin-2-yl)(cyclopropyl)methyl)amino)pyrimidine-5-carbonitrile] |
| 3 | 1 | 3300 | N#Cc1c(N)nc(N)nc1N[C@H](c1nc2c(F)ccc(Cl)c2c(=O)n1N1CCNCC1)C1CC1 [Compound 48, (S)-2,4-diamino-6-(((5-chloro-8-fluoro-4-oxo-3-(piperazin-1-yl)-3,4-dihydroquinazolin-2-yl)(cyclopropyl)methyl)amino)pyrimidine-5-carbonitrile] |
| 160 | 7 | > 10000 | C[C@H](Nc1ncnc(N)c1C#N)c1nc2cccc(Cl)c2c(=O)n1C1CCNC1 (stereo partly drawn) [Compound 85, 4-amino-6-(((1S)-1-(5-chloro-4-oxo-3-(pyrrolidin-3-yl)-3,4-dihydroquinazolin-2-yl)ethyl)amino)pyrimidine-5-carbonitrile] |
| 1300 | 390 | > 10000 | N#Cc1c(N)nc(N)nc1N1CCC[C@@H]1c1nc2cccc(F)c2c(=O)n1N1CCN(Cc2ccccc2)CC1 (stereo in doubt) [Compound 124, (R)-2,4-diamino-6-(2-(3-(4-benzylpiperazin-1-yl)-5-fluoro-4-oxo-3,4-dihydroquinazolin-2-yl)pyrrolidin-1-yl)pyrimidine-5-carbonitrile] |
| 350 | 140 | > 10000 | C[C@H](Nc1nc(N)nc(N)c1C#N)c1nc2cccc(Cl)c2c(=O)n1[C@H]1CCNC1 [Compound 30, 2,4-diamino-6-(((S)-1-(5-chloro-4-oxo-3-((S)-pyrrolidin-3-yl)-3,4-dihydroquinazolin-2-yl)ethyl)amino)pyrimidine-5-carbonitrile] |
| 950 | 260 | > 10000 | CN1CCN(n2c([C@@H](Nc3nc(N)nc(N)c3Cl)C3CC3)nc3cccc(Cl)c3c2=O)CC1 [Compound 2, (S)-5-chloro-2-(cyclopropyl((2,6-diamino-5-chloropyrimidin-4-yl)amino)methyl)-3-(4-methylpiperazin-1-yl)quinazolin-4(3H)-one] |
| 32 | 2 | > 10000 | C[C@H](Nc1ncnc(N)c1C#N)c1nc2cccc(Cl)c2c(=O)n1C1CCCNCC1 (stereo partly drawn) [Compound 84, 4-amino-6-(((1S)-1-(3-(azepan-4-yl)-5-chloro-4-oxo-3,4-dihydroquinazolin-2-yl)ethyl)amino)pyrimidine-5-carbonitrile] |
| 1900 | 9 | > 10000 | C[C@H](Nc1ncnc(N)c1C#N)c1nc2cccc(Cl)c2c(=O)n1C1CCN(CC(F)F)CC1 [Compound 105, (S)-4-amino-6-((1-(5-chloro-3-(1-(2,2-difluoroethyl)piperidin-4-yl)-4-oxo-3,4-dihydroquinazolin-2-yl)ethyl)amino)pyrimidine-5-carbonitrile] |
| 2200 | 35 | > 10000 | C[C@H](Nc1ncnc(N)c1C#N)c1nc2cccc(Cl)c2c(=O)n1C1CCN(C2CCN(C)CC2)CC1 [Compound 134, (S)-4-amino-6-((1-(5-chloro-3-(1'-methyl-[1,4'-bipiperidin]-4-yl)-4-oxo-3,4-dihydroquinazolin-2-yl)ethyl)amino)pyrimidine-5-carbonitrile] |
| 4 | 14 | 7400 | C[C@H](NC(=O)c1nc(Cl)c(N)nc1N)c1nc2cccc(Cl)c2c(=O)n1N1CCNCC1 [Compound 33, (S)-3,5-diamino-6-chloro-N-(1-(5-chloro-4-oxo-3-(piperazin-1-yl)-3,4-dihydroquinazolin-2-yl)ethyl)pyrazine-2-carboxamide] |
| 1200 | 14 | > 10000 | C[C@H](Nc1ncnc2[nH]cnc12)c1nc2cccc(Cl)c2c(=O)n1C1CCN(C)CC1 [Compound 120, (S)-2-(1-((9H-purin-6-yl)amino)ethyl)-5-chloro-3-(1-methylpiperidin-4-yl)quinazolin-4(3H)-one] |
| 15 | 5 | > 10000 | CC[C@H](Nc1nc(N)nc(N)c1C#N)c1nc2cccc(Cl)c2c(=O)n1C1CCNCC1 [Compound 22, (S)-2,4-diamino-6-((1-(5-chloro-4-oxo-3-(piperidin-4-yl)-3,4-dihydroquinazolin-2-yl)propyl)amino)pyrimidine-5-carbonitrile] |
| 28 | 11 | > 10000 | C[C@H](Nc1nc(N)nc(N)c1Cl)c1nc2cccc(Cl)c2c(=O)n1N1CCNCC1 [Compound 72, (S)-5-chloro-2-(1-((2,6-diamino-5-chloropyrimidin-4-yl)amino)ethyl)-3-(piperazin-1-yl)quinazolin-4(3H)-one] |
| 6100 | 170 | > 10000 | C[C@H](Nc1nc(N)nc(N)c1Cl)c1nc2cccc(Cl)c2c(=O)n1N1CCN(CC(F)(F)F)CC1 [Compound 108, (S)-5-chloro-2-(1-((2,6-diamino-5-chloropyrimidin-4-yl)amino)ethyl)-3-(4-(2,2,2-trifluoroethyl)piperazin-1-yl)quinazolin-4(3H)-one] |
| 570 | 220 | > 10000 | C[C@H](Nc1nc(N)nc(N)c1Cl)c1nc2c(F)ccc(Cl)c2c(=O)n1N1CCN(Cc2ccccc2)CC1 [Compound 117, (S)-3-(4-benzylpiperazin-1-yl)-5-chloro-2-(1-((2,6-diamino-5-chloropyrimidin-4-yl)amino)ethyl)-8-fluoroquinazolin-4(3H)-one] |
| 370 | 13 | > 10000 | C[C@H](Nc1ncnc(N)c1C#N)c1nc2cccc(Cl)c2c(=O)n1N1CCCNCC1 [Compound 66, (S)-4-amino-6-((1-(5-chloro-3-(1,4-diazepan-1-yl)-4-oxo-3,4-dihydroquinazolin-2-yl)ethyl)amino)pyrimidine-5-carbonitrile] |
| 2 | 0.7 | 890 | Cc1nc(N)nc(N[C@@H](C)c2nc3c(F)ccc(Cl)c3c(=O)n2N2CCNCC2)c1C#N [Compound 21, (S)-2-amino-4-((1-(5-chloro-8-fluoro-4-oxo-3-(piperazin-1-yl)-3,4-dihydroquinazolin-2-yl)ethyl)amino)-6-methylpyrimidine-5-carbonitrile] |
| 530 | 24 | 730 | C[C@H](Nc1nc(N)nc(N)c1C#N)c1nc2cccc(Cl)c2c(=O)n1N1CCN(CC(F)F)CC1 [Compound 111, (S)-2,4-diamino-6-((1-(5-chloro-3-(4-(2,2-difluoroethyl)piperazin-1-yl)-4-oxo-3,4-dihydroquinazolin-2-yl)ethyl)amino)pyrimidine-5-carbonitrile] |
